Data set [1] has as its target Rhesus PDE2A3 (Macaca mulatta, UniProt B3VTJ2). Briefly: PDE2 fluorescence polarization (IMAP FP) inhibition assay, rhesus PDE2A3. The data set is classed as biochemical, rhesus macaque.
Data set [2] deals with human PDE2A1 (Homo sapiens (Human), UniProt O00408). Kind of data set: PDE2 IMAP FP inhibition assay, human PDE2A1 (selectivity panel format). It counts as biochemical. A digest of the protocol: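 Enzyme dosed to give about 20% substrate turnover acts for 60 min at room temperature on 50 nM FAM-cAMP plus 1000 nM cGMP (Tris pH 7.2, MgCl2, DTT, Tween-20 buffer). IMAP binding solution then stops the reaction; after 1 h, polarization is measured from parallel and perpendicular fluorescence.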
Chain of human PDE2A1 (O00408 other isoform, or with tags, fused parts or gaps): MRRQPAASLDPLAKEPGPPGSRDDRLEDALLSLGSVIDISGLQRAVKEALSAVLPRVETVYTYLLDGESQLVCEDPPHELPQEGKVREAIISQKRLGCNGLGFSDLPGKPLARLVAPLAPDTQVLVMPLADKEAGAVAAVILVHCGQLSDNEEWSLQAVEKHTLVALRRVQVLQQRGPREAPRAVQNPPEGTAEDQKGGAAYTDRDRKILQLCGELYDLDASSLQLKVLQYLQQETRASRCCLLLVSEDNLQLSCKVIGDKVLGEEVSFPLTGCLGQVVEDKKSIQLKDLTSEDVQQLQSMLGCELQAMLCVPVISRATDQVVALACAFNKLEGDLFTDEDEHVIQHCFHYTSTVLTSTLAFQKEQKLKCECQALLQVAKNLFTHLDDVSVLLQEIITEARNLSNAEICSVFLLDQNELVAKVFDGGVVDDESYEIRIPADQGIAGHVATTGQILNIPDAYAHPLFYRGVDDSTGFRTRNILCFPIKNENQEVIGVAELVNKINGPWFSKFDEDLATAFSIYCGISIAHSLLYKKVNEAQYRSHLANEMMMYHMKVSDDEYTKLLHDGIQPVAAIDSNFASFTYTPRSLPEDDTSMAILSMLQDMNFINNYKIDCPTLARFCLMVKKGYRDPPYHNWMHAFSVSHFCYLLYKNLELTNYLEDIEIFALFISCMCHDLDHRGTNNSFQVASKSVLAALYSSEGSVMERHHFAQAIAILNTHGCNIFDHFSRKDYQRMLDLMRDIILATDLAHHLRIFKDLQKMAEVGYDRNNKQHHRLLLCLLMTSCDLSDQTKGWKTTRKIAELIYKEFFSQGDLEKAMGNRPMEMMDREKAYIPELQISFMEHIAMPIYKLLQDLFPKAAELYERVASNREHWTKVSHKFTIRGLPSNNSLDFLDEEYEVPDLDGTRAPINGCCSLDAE

Data set [3] has as its target P-glycoprotein (P-gp) (Homo sapiens (Human), UniProt P08183). Briefly: P-gp transport, experimental BA/AB ratio, human. It counts as in vitro ADME. The conditions noted are these: LLC-PK1, 1 μM substrate concentration. An excerpt: (§1) See Doan et al. “Passive permeability and P-glycoprotein-mediated efflux differentiate central nervous system (CNS) and non-CNS marketed drugs”, J. Pharm. Exper. […] Desirable human BA/AB ratio is less than 2.0. […] See, for example, Desai, et al. Integration of in Silico and in Vitro Tools for Scaffold Optimization during Drug Discovery: Predicting P-glycoprotein Efflux” Mol. Pharmac.

In data set [4] the target is P-glycoprotein (P-gp, rat Mdr1a) (Rattus norvegicus, UniProt Q6PSM0). Briefly: P-gp transport, experimental BA/AB ratio, rat LLC-Mdr1a. It counts as in vitro ADME. Particulars: LLC-PK1; rat LLC-Mdrla; 1 μM substrate concentration.
Chain of P-glycoprotein (P-gp, rat Mdr1a) (Q6PSM0 1-1272): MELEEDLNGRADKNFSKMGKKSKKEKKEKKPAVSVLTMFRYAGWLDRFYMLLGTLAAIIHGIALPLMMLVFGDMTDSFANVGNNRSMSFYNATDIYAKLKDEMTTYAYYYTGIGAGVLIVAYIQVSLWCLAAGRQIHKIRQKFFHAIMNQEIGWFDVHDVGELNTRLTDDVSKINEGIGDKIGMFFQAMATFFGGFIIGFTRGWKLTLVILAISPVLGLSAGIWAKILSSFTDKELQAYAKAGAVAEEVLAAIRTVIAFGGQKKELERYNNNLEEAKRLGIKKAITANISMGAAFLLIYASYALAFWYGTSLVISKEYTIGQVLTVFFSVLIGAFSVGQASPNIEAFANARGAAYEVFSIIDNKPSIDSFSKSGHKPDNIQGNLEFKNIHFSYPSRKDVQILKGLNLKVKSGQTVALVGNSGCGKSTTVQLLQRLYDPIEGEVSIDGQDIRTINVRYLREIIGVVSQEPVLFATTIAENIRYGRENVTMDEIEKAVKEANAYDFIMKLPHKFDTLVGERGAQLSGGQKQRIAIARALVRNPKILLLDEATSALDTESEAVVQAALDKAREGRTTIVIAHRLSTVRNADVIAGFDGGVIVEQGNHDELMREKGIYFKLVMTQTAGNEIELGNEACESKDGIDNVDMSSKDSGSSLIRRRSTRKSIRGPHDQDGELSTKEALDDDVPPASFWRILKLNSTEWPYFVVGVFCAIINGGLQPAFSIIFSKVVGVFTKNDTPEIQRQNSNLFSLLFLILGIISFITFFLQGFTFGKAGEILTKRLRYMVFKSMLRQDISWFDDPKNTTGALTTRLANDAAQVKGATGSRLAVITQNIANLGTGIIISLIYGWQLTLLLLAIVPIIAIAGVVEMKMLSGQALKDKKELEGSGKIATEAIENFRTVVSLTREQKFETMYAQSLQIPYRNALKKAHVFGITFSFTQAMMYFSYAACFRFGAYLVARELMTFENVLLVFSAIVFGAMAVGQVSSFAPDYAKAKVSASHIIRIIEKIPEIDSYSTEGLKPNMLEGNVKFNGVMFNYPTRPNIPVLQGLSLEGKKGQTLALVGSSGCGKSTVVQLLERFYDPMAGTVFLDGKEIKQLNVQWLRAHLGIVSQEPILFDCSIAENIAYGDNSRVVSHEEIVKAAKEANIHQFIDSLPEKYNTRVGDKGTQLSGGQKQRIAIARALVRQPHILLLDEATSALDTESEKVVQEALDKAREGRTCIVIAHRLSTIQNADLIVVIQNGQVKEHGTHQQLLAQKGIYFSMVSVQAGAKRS
Description: as §1

[5] abbreviates: Lab B, read-out: Rhesus PDE2 Ki (nM) - Lab B.
Setting [6] is: Lab B, read-out: Human PDE2 Ki (nM) - Lab B.
The mark [7] stands for this setting: Lab A, read-out: Rhesus PDE2 Ki (nM) - Lab A.
Setting [8] is: Lab A, read-out: Human PDE2 Ki (nM) - Lab A.

Where two headings read alike, the source gives them in different places. Bounds are passed on as bounds.

Chain of Rhesus PDE2A3 (B3VTJ2 1-941): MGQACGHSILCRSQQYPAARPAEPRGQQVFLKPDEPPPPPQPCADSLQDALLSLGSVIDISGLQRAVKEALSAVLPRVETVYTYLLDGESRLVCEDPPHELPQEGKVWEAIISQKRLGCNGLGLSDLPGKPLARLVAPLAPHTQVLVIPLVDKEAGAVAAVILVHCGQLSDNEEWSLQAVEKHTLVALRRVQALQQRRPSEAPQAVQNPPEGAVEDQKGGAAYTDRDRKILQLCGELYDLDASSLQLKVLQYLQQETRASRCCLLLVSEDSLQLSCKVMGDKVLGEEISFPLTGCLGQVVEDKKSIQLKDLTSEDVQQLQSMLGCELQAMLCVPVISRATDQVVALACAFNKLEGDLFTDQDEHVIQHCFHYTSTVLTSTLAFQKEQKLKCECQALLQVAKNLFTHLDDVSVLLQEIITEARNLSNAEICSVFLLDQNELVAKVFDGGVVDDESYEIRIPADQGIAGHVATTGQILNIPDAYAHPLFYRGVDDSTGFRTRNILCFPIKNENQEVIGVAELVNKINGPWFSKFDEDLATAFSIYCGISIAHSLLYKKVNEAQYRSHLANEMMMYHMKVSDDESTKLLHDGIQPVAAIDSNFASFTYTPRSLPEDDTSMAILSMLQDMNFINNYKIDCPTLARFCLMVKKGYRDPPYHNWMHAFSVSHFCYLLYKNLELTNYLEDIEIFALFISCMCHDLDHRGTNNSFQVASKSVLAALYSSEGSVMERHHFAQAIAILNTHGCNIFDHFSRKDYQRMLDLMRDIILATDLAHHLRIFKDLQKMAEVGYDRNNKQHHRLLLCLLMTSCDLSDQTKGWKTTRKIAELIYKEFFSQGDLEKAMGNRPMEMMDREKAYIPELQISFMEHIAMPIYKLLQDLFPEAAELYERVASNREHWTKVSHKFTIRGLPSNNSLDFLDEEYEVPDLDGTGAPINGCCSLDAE
Chain of P-glycoprotein (P-gp) (P08183 whole entry): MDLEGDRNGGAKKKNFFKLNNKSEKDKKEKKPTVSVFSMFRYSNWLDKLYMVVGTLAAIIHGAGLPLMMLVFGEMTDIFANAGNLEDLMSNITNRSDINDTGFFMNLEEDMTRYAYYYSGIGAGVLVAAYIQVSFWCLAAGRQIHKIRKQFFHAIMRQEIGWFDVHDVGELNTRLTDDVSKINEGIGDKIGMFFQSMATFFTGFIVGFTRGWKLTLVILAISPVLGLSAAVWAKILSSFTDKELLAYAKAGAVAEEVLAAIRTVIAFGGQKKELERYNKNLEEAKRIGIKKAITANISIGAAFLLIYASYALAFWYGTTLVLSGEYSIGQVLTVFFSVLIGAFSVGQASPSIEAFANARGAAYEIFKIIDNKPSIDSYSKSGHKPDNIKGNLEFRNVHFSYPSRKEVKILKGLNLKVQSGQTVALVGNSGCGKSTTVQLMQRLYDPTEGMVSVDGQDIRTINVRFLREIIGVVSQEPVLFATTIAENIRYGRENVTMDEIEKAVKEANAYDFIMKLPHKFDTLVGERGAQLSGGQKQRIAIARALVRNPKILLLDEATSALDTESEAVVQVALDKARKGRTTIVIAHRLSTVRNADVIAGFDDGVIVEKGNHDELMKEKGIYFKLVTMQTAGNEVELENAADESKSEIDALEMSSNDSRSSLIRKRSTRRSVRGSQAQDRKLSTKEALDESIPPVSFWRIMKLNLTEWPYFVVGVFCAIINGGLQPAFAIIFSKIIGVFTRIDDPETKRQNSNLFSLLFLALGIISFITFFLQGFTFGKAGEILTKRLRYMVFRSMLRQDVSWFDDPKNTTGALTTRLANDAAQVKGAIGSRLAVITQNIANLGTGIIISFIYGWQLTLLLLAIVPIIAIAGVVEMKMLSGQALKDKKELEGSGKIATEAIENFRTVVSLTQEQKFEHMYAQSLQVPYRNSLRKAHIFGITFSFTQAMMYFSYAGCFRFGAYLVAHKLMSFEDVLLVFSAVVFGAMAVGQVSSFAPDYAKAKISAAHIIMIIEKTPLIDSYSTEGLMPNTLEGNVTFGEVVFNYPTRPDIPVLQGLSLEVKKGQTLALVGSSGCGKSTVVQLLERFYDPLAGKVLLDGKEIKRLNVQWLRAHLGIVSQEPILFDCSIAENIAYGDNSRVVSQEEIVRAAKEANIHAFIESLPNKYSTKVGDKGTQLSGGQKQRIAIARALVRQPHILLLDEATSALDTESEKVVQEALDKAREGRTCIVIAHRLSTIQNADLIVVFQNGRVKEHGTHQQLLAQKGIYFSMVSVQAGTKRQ

`CC(C)[C@@H](NC(=O)c1cc(=O)[nH]c(N(C)C)n1)c1ccc(C(C)(F)F)c(F)c1` [Example 77, N-{(1R)-1-[4-(1,1-difluoroethyl)-3-fluorophenyl]-2-methylpropyl}-2-(dimethylamino)-6-oxo-1,6-dihydropyrimidine-4-carboxamide]: the inhibitory constant (Ki) in data set [1] (setting [5]) worked out at 0.21 nM; in data set [2] (setting [6]), 0.19 nM. Besides, the values for the efflux ratio at 1 μM in data set [3] and in data set [4] were 1.1 and 7.3, respectively.
As for `CN(C)c1nc(C(=O)N[C@@H](c2ccc(OC(F)(F)F)cc2)C2CC2)cc(=O)[nH]1` [Example 107, N-{(1R)-cyclopropyl[4-(trifluoromethoxy)phenyl]methyl}-2-(dimethylamino)-6-oxo-1,6-dihydropyrimidine-4-carboxamide], the figures for the inhibitory constant (Ki) in data set [1] (setting [7]), in data set [1] (setting [5]) and in data set [2] (setting [6]) were 0.93 nM, 2.2 nM and 1.7 nM, respectively. Besides, the efflux ratio at 1 μM in data set [3] was 0.4; in data set [4] it was 2.2.
As to `CCCOc1nc(C(=O)N[C@H](C)c2ccc(C(F)(F)F)cc2)cc(=O)[nH]1` [Example 178, 6-oxo-2-propoxy-N-{(1R)-1-[4-(trifluoromethyl)phenyl]ethyl}-1,6-dihydropyrimidine-4-carboxamide], the Ki in data set [1] (setting [7]) is 58 nM; in data set [2] (setting [8]) it was 52 nM. The efflux ratio at 1 μM in data set [3] is 0.4; in data set [4], 1.
With `C[C@@H](NC(=O)c1cc(=O)[nH]c(N(C)C)n1)c1ccc(SC(F)(F)F)cc1` [Example 143, 2-(dimethylamino)-6-oxo-N-[(1R)-1-{4-[(trifluoromethyl)sulfanyl]phenyl}ethyl]-1,6-dihydropyrimidine-4-carboxamide], the Ki in data set [1] (setting [7]) was found to be 0.57 nM; in data set [1] (setting [5]), 0.61 nM; in data set [2] (setting [8]), 0.32 nM; in data set [2] (setting [6]) it was 0.82 nM. Further, the efflux ratio at 1 μM in data set [3] was found to be 0.5; in data set [4] it was 2.5.
`CN(C)c1nc(C(=O)N[C@@H](c2ccc(C(F)(F)F)c(F)c2)C(C)(C)C)cc(=O)[nH]1` [Example 102, 2-(dimethylamino)-N-{(1R)-1-[3-fluoro-4-(trifluoromethyl)phenyl]-2,2-dimethylpropyl}-6-oxo-1,6-dihydropyrimidine-4-carboxamide]: the Ki amounted to 0.18 nM in data set [1] (setting [5]) and 0.2 nM in data set [2] (setting [6]). Further, the efflux ratio at 1 μM in data set [3] was found to be 1.4; in data set [4] it was 5.7.
In the same order, the values of `CCC(C)(NC(=O)c1cc(=O)[nH]c(N(C)C)n1)c1ccc(C(F)(F)F)cc1F` (single isomer, unassigned) [Example 130, (R)- or (S)-2-(dimethylamino)-N-{1-[2-fluoro-4-(trifluoromethyl)phenyl]-1-methylpropyl}-6-oxo-1,6-dihydro-pyrimidine-4-carboxamide] are 1.2 nM, 0.89 nM, 0.6 and 1.3.
As for `CC[C@@H](NC(=O)c1cc(=O)[nH]c(N(C)C)n1)c1ccc(OC(F)(F)F)cc1` [Example 105, 2-(dimethylamino)-6-oxo-N-{(1R)-1-[4-(trifluoromethoxy)phenyl]propyl}-1,6-dihydropyrimidine-4-carboxamide], the results for the Ki in data set [1] (setting [7]), in data set [1] (setting [5]) and in data set [2] (setting [6]) were 1 nM, 1.8 nM and 1.6 nM, respectively. For the same compound, the values for the efflux ratio at 1 μM in data set [3] and in data set [4] were 0.5 and 3.7, respectively.
Regarding `CN(C)c1nc(C(=O)NC(C)(C)c2ccc(C(F)(F)F)cc2Cl)cc(=O)[nH]1` [Example 80, N-{1-[2-chloro-4-(trifluoromethyl)phenyl]-1-methylethyl}-2-(dimethylamino)-6-oxo-1,6-dihydropyrimidine-4-carboxamide], the Ki is 0.65 nM in data set [1] (setting [5]) and 0.79 nM in data set [2] (setting [6]). Also, the efflux ratio at 1 μM in data set [3] is 0.4; in data set [4] it was 1.7.
Consider `O=C(N[C@@H](c1ccc(S(F)(F)(F)(F)F)cc1)C1CC1)c1cc(=O)[nH]c(N2CCCC2)n1` [Example 99, N-{(R)-cyclopropyl[4-(pentafluoro-λ^6-sulfanyl)phenyl]methyl}-6-oxo-2-pyrrolidin-1-yl-1,6-dihydropyrimidine-4-carboxamide], for which the Ki in data set [1] (setting [5]) and in data set [2] (setting [6]) was 1.1 nM in each case. The efflux ratio at 1 μM in data set [3] stood at 0.7; in data set [4] it was 5.8.
On to `C[C@@H](NC(=O)c1cc(=O)[nH]c(N(C)C)n1)c1ccc(SC(F)(F)F)c(F)c1` [Example 96, 2-(dimethylamino)-N-[(1R)-1-{3-fluoro-4-[(trifluoromethyl)sulfanyl]phenyl}ethyl]-6-oxo-1,6-dihydropyrimidine-4-carboxamide], for which the figures for the Ki in data set [1] (setting [7]) and in data set [2] (setting [8]) were 0.36 nM and 0.2 nM, respectively. For the same compound, the efflux ratio at 1 μM in data set [3] was 0.5; in data set [4], 2.5.
For `CC(C)[C@@H](NC(=O)c1cc(=O)[nH]c(N2CCCC2)n1)c1ccc(C(F)(F)F)cc1` [Example 95, N-{(1R)-2-methyl-1-[4-(trifluoromethyl)phenyl]propyl}-6-oxo-2-pyrrolidin-1-yl-1,6-dihydropyrimidine-4-carboxamide] the same measures were 0.39 nM, 0.18 nM, 1 and 4.5.
`O=C(N[C@@H](c1ccc(C2CC2)cc1)C1CC1)c1cc(=O)[nH]c(N2CCCC2)n1` [Example 113, N-[(R)-cyclopropyl(4-cyclopropylphenyl)methyl]-6-oxo-2-pyrrolidine-1-yl-1,6-dihydropyrimidine-4-carboxamide]: the Ki in data set [1] (setting [7]) turned out to be 0.36 nM; in data set [1] (setting [5]), 0.65 nM; in data set [2] (setting [6]) it was 0.63 nM. The efflux ratio at 1 μM in data set [3] amounted to 0.4; in data set [4], 3.9.
Take `CN(C)c1nc(C(=O)N[C@@H](c2ccc(SC(F)(F)F)cc2)C2CC2)cc(=O)[nH]1` [Example 111, N-[(R)-cyclopropyl{4-[(trifluoromethyl)sulfanyl]phenyl}methyl]-2-(dimethylamino)-6-oxo-1,6-dihydropyrimidine-4-carboxamide]: the Ki stood at 0.41 nM in data set [1] (setting [7]), 0.8 nM in data set [1] (setting [5]) and 0.9 nM in data set [2] (setting [6]). For the same compound, the efflux ratio at 1 μM in data set [3] came to 0.3; in data set [4], 2.
Turning to `CC(C)[C@@H](NC(=O)c1cc(=O)[nH]c(N2CC[C@H](F)C2)n1)c1ccc(C(F)(F)F)c(F)c1` [Example 168, 2-[(3S)-3-fluoropyrrolidin-1-yl]-N-{(1R)-1-[3-fluoro-4-(trifluoromethyl)phenyl]-2-methylpropyl}-6-oxo-1,6-dihydropyrimidine-4-carboxamide], the values for the Ki in data set [1] (setting [5]) and in data set [2] (setting [6]) were 0.5 nM and 0.47 nM, respectively. Further, the efflux ratio at 1 μM is 4.1 in data set [3] and 21.2 in data set [4].
In the same order, the values of `CN(C)c1nc(C(=O)N[C@@H](c2ccc(C(F)(F)F)c(F)c2)C2(C)CC2)cc(=O)[nH]1` [Example 42, 2-(dimethylamino)-N-[(R)-[3-fluoro-4-(trifluoromethyl)phenyl](1-methylcyclopropyl)methyl]-6-oxo-1,6-dihydropyrimidine-4-carboxamide] are 0.45 nM, 0.44 nM, 0.7 and 3.
`CC(C)[C@@H](NC(=O)c1cc(=O)[nH]c(N(C)C)n1)c1ccc(SC(F)(F)F)cc1` [Example 30, 2-(dimethylamino)-N-[(1R)-2-methyl-1-{4-[(trifluoromethyl)sulfanyl]phenyl}propyl]-6-oxo-1,6-dihydropyrimidine-4-carboxamide]: the Ki in data set [1] (setting [7]) is 0.19 nM; in data set [1] (setting [5]), 0.22 nM; in data set [2] (setting [8]), no more than 5.1 nM; in data set [2] (setting [6]), 0.37 nM. For the same compound, the efflux ratio at 1 μM in data set [3] was determined as 0.4; in data set [4], 2.6.
As for `CN(C)c1nc(C(=O)N[C@@H](c2ccc(C(F)(F)F)cc2)C(C)(C)C)cc(=O)[nH]1` [Example 2, (R)—N-(2,2-dimethyl-1-(4-(trifluoromethyl)phenyl)propyl)-2-(dimethylamino)-6-oxo-1,6-dihydropyrimidine-4-carboxamide], the Ki in data set [1] (Rhesus PDE2 Ki (nM) - Lab B, Lab B) was found to be 0.11 nM; in data set [2] (setting [6]) it was 0.15 nM. Further, the efflux ratio at 1 μM in data set [3] was 0.6; in data set [4], 2.6.
As for `CN(C)c1nc(C(=O)NC2(c3ccc(SC(F)(F)F)cc3)CC2)cc(=O)[nH]1` [Example 92, 2-(dimethylamino)-6-oxo-N-(1-{4-[(trifluoromethyl)sulfanyl]phenyl}cyclopropyl)-1,6-dihydropyrimidine-4-carboxamide], the results for the Ki in data set [1] (setting [7]) and in data set [2] (setting [8]) were 2.5 nM and 1.8 nM, respectively. For the same compound, the figures for the efflux ratio at 1 μM in data set [3] and in data set [4] were 0.4 and 1.7, respectively.
On to `CN(C)c1nc(C(=O)N[C@@H](c2ccc(C3CC3)cc2)C(C)(C)C)cc(=O)[nH]1` [Example 35, N-[(1R)-1-(4-cyclopropylphenyl)-2,2-dimethylpropyl]-2-(dimelhylamino)-6-oxo-1,6-dihydropyrimidine-4-carboxamide], for which the Ki in data set [1] (setting [5]) was 0.12 nM; in data set [2] (setting [6]), 0.11 nM. Besides, the figures for the efflux ratio at 1 μM in data set [3] and in data set [4] were 0.5 and 3.6, respectively.

The record behind these values is US10285989B2, “Pyrimidinone amide compounds as PDE2 inhibitors” (Merck Sharp & Dohme Corp., priority 2015, dated 2019).
